Biological target: galectin-3 carbohydrate recognition domain (Gal3C) (Homo sapiens, UniProt P17931)
Assay: X-ray crystal structure at […] Å
Format: binding

Chain of galectin-3 carbohydrate recognition domain (Gal3C) (P17931 113-250): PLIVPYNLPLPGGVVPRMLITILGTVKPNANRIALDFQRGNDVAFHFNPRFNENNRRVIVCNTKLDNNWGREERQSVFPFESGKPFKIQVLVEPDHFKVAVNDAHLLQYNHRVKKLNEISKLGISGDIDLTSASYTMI

In the case of `OCC(O)CO` [glycerol], the Kd is reported as > 100 mM.

Reference: PMC3255464 (2011)
